Data: ChEMBL document CHEMBL4422664, “2-Benzoylbenzofuran derivatives possessing piperazine linker as anticancer agents” (Bioorg Med Chem Lett, 2019)

Tests used:
HCT-116 = test: Cytotoxicity against human HCT116 assessed as reduction in cell viability after 48 hrs by MTT assay; type: functional, cell-based; conditions: HCT-116, 48 h
MCF7 = test: Cytotoxicity against human MCF7 assessed as reduction in cell viability after 48 hrs by MTT assay; type: functional, cell-based; conditions: MCF7, 48 h
HeLa = test: Cytotoxicity against human HeLa assessed as reduction in cell viability after 48 hrs by MTT assay; type: functional, cell-based
SGC-7901 = test: Cytotoxicity against human SGC7901 assessed as reduction in cell viability after 48 hrs by MTT assay; type: functional, cell-based; conditions: SGC-7901, 48 h
A549 [1] = test: Cytotoxicity against human A549 assessed as reduction in cell viability after 48 hrs by MTT assay; type: functional, cell-based; conditions: A549, 48 h
L02 = test: Cytotoxicity against human L02 assessed as reduction in cell viability after 48 hrs by MTT assay; type: cell-based; conditions: L02, 48 h
A549 [2] = test: Induction of apoptosis in human A549 assessed as viable cells at 1 uM after 24 to 48 hrs by Annexin V/propidium iodide staining-based flow cytometric analysis (reference value: 98.5%); type: functional; conditions: read-out: Activity
A549 [3] = test: Induction of apoptosis in human A549 assessed as late apoptotic cells at 2 uM after 24 to 48 hrs by Annexin V/propidium iodide staining-based flow cytometric analysis (reference value: 0.54%); type: functional
A549 [4] = test: Induction of apoptosis in human A549 assessed as late apoptotic cells at 1 uM after 24 to 48 hrs by Annexin V/propidium iodide staining-based flow cytometric analysis (reference value: 0.54%); type: functional
A549 [5] = test: Induction of apoptosis in human A549 assessed as necrotic cells at 1 uM after 24 to 48 hrs by Annexin V/propidium iodide staining-based flow cytometric analysis (reference value: 0.16%); type: functional
A549 [6] = test: Induction of apoptosis in human A549 assessed as viable cells at 2 uM after 24 to 48 hrs by Annexin V/propidium iodide staining-based flow cytometric analysis (reference value: 98.5%); type: functional; conditions: read-out: Activity
A549 [7] = test: Induction of apoptosis in human A549 assessed as early apoptotic cells at 1 uM after 24 to 48 hrs by Annexin V/propidium iodide staining-based flow cytometric analysis (reference value: 0.79%); type: functional
A549 [8] = test: Induction of apoptosis in human A549 assessed as early apoptotic cells after 24 to 48 hrs by Annexin V/propidium iodide staining-based flow cytometric analysis; type: functional, cell-based
A549 [9] = test: Induction of apoptosis in human A549 assessed as early apoptotic cells at 2 uM after 24 to 48 hrs by Annexin V/propidium iodide staining-based flow cytometric analysis (reference value: 0.79%); type: functional
A549 [10] = test: Induction of apoptosis in human A549 assessed as necrotic cells at 2 uM after 24 to 48 hrs by Annexin V/propidium iodide staining-based flow cytometric analysis (reference value: 0.16%); type: functional

Compound | IC50 (HCT-116) [µM] | IC50 (MCF7) [µM] | IC50 (HeLa) [µM] | IC50 (SGC-7901) [µM] | IC50 (A549 [1]) [µM] | IC50 (L02) [µM] | viability at 1 µM (A549 [2]) [%] | Activity (A549 [3]) [%] | Activity (A549 [4]) [%] | Activity (A549 [5]) [%] | viability at 2 µM (A549 [6]) [%] | Activity (A549 [7]) [%] | Activity (A549 [8]) | Activity (A549 [9]) [%] | Activity (A549 [10]) [%]
CCN(CC)c1ccc2cc(C(=O)c3ccc(N4CCN(C(=O)CN5CCN(Cc6ccc(C#N)cc6)CC5)CC4)cc3)oc2c1 | > 40 | > 40 | > 40 | 26.2 | 17.4 | 29.6 | – | – | – | – | – | – | – | – | –
CCN(CC)c1ccc2cc(C(=O)c3ccc(N4CCN(C(=O)CN5CCN(CC(=O)c6ccc7ccccc7c6)CC5)CC4)cc3)oc2c1 | > 40 | > 40 | 17.1 | > 40 | 26.3 | > 100 | – | – | – | – | – | – | – | – | –
CCN(CC)c1ccc2cc(C(=O)c3ccc(N4CCN(C(=O)CN5CCN(C(=O)c6cc(Cl)cc(Cl)c6)CC5)CC4)cc3)oc2c1 | 28 | 16.1 | 8.11 | 2.72 | 6.74 | > 100 | – | – | – | – | – | – | – | – | –
CCN(CC)c1ccc2cc(C(=O)c3ccc(N4CCN(C(=O)CN5CCN(C(=O)c6ccc(C(F)(F)F)cc6)CC5)CC4)cc3)oc2c1 | > 40 | > 40 | > 40 | > 40 | > 40 | 14.3 | – | – | – | – | – | – | – | – | –
CCN(CC)c1ccc2cc(C(=O)c3ccc(N4CCN(C(=O)CN5CCNCC5)CC4)cc3)oc2c1 | 1.87 | 5.34 | 1.35 | 1.22 | 0.32 | > 100 | – | – | – | – | – | – | – | – | –
C#CCN1CCN(CC(=O)N2CCN(c3ccc(C(=O)c4cc5ccc(N(CC)CC)cc5o4)cc3)CC2)CC1 | 17.7 | > 40 | > 40 | 20.1 | > 40 | > 100 | – | – | – | – | – | – | – | – | –
CCN(CC)c1ccc2cc(C(=O)c3ccc(N4CCN(C(=O)CN5CCN(Cc6ccc(F)c(F)c6)CC5)CC4)cc3)oc2c1 | 26.3 | 9.22 | 6.4 | 1.78 | 5.44 | 10.2 | – | – | – | – | – | – | – | – | –
CCN(CC)c1ccc2cc(C(=O)c3ccc(N4CCN(C(=O)CN5CCN(S(=O)(=O)c6ccc(F)cc6)CC5)CC4)cc3)oc2c1 | > 40 | 20.5 | 16.7 | > 40 | 33.2 | 9.24 | – | – | – | – | – | – | – | – | –
CCN(CC)c1ccc2cc(C(=O)c3ccc(N4CCN(C(=O)CN5CCN(C(=O)CCl)CC5)CC4)cc3)oc2c1 | > 40 | > 40 | 5.52 | 1.63 | 3.06 | 20.9 | – | – | – | – | – | – | – | – | –
CCN(CC)c1ccc2cc(C(=O)c3ccc(N4CCN(C(=O)CN5CCN(Cc6ccc(/C=C/C(=O)OC)cc6)CC5)CC4)cc3)oc2c1 | 9.92 | 8.73 | 3.04 | 0.74 | 2.81 | > 100 | 83.3 | 43.8 | 7.98 | 0.82 | 9.27 | 7.95 | Dose-dependent effect | 43.1 | 3.87
CCN(CC)c1ccc2cc(C(=O)c3ccc(N4CCN(C(=O)CN5CCN(CC(=O)c6ccc(F)cc6)CC5)CC4)cc3)oc2c1 | 14.2 | 16.7 | 9.64 | 3.44 | 0.57 | 68.4 | – | – | – | – | – | – | – | – | –
O=c1[nH]cc(F)c(=O)[nH]1 [FLUOROURACIL] | 15.5 | 26.3 | 10.7 | 12 | 10.6 | – | – | – | – | – | – | – | – | – | –
CCN(CC)c1ccc2cc(C(=O)c3ccc(N4CCN(C(=O)CN5CCN(CC(=O)c6ccc(C#N)cc6)CC5)CC4)cc3)oc2c1 | > 40 | 11.9 | 2.44 | > 40 | 4.57 | > 100 | – | – | – | – | – | – | – | – | –
CCOC(=O)CN1CCN(CC(=O)N2CCN(c3ccc(C(=O)c4cc5ccc(N(CC)CC)cc5o4)cc3)CC2)CC1 | > 40 | > 40 | 22.1 | > 40 | > 40 | 68.7 | – | – | – | – | – | – | – | – | –
CCN(CC)c1ccc2cc(C(=O)c3ccc(N4CCN(C(=O)CN5CCN(Cc6ccc(C(F)(F)F)cc6)CC5)CC4)cc3)oc2c1 | > 40 | 18.2 | > 40 | 32 | 20.1 | 6.54 | – | – | – | – | – | – | – | – | –
CCN(CC)c1ccc2cc(C(=O)c3ccc(N4CCN(C(=O)CN5CCN(CC(=O)c6ccc(C)cc6)CC5)CC4)cc3)oc2c1 | 13.4 | > 40 | 1.68 | > 40 | 0.87 | 36.5 | – | – | – | – | – | – | – | – | –
CCN(CC)c1ccc2cc(C(=O)c3ccc(N4CCN(C(=O)CN5CCN(CC(=O)c6ccccc6)CC5)CC4)cc3)oc2c1 | 27.1 | 34.5 | 3.12 | 4.03 | 12.6 | 53.8 | – | – | – | – | – | – | – | – | –
CCN(CC)c1ccc2cc(C(=O)c3ccc(N4CCN(C(=O)CN5CCN(S(=O)(=O)C6CC6)CC5)CC4)cc3)oc2c1 | > 40 | > 40 | 28.1 | 15.3 | 17.3 | > 100 | – | – | – | – | – | – | – | – | –
CCN(CC)c1ccc2cc(C(=O)c3ccc(N4CCN(C(=O)CN5CCN(C(=O)c6ccc(F)cc6)CC5)CC4)cc3)oc2c1 | > 40 | > 40 | > 40 | > 40 | > 40 | > 100 | – | – | – | – | – | – | – | – | –
CCN(CC)c1ccc2cc(C(=O)c3ccc(N4CCN(C(=O)CN5CCN(C(=O)/C=C/c6ccccc6)CC5)CC4)cc3)oc2c1 | 6.81 | 13.4 | 5.26 | 1.14 | 9.45 | > 100 | – | – | – | – | – | – | – | – | –
CCN(CC)c1ccc2cc(C(=O)c3ccc(N4CCN(C(=O)CN5CCN(S(=O)(=O)c6ccc(C(F)(F)F)cc6)CC5)CC4)cc3)oc2c1 | 32.2 | 17.5 | > 40 | > 40 | > 40 | 17 | – | – | – | – | – | – | – | – | –
CCN(CC)c1ccc2cc(C(=O)c3ccc(N4CCN(C(=O)CN5CCN(S(=O)(=O)c6ccc(C#N)cc6)CC5)CC4)cc3)oc2c1 | 36.4 | > 40 | 8.47 | > 40 | > 40 | 44.1 | – | – | – | – | – | – | – | – | –
CCN(CC)c1ccc2cc(C(=O)c3ccc(N4CCN(C(=O)CN5CCN(CC(=O)c6ccc(OC)cc6)CC5)CC4)cc3)oc2c1 | 17.9 | 16.7 | 15.3 | 8.91 | 4.84 | > 100 | – | – | – | – | – | – | – | – | –
CCN(CC)c1ccc2cc(C(=O)c3ccc(N4CCN(C(=O)CN5CCN(S(=O)(=O)c6ccc(OC(F)(F)F)cc6)CC5)CC4)cc3)oc2c1 | 7.68 | 20.1 | 30.2 | 24.4 | > 40 | 34.7 | – | – | – | – | – | – | – | – | –
CCN(CC)c1ccc2cc(C(=O)c3ccc(N4CCN(C(=O)CN5CCN(CC(C)=O)CC5)CC4)cc3)oc2c1 | 24 | 11 | 2.76 | 2.21 | 8.92 | > 100 | – | – | – | – | – | – | – | – | –
